Measurements as given in ChEMBL document CHEMBL1201862, “PubChem BioAssay data set” (2004).
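Tested at 5 concentrations; 48 h exposure; 96-well plates; endpoints linearly interpolated, else capped at highest concentration. Abbreviation: GI50, concentration required for 50% inhibition of growth.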 Activity calls are given as the source filed them. Rule as the data show it: active = GI50 up to about 1.1 µM and inactive = higher.

Legend:
Test in all cases: DTP human tumour cell line panel, 48 h
SW-620 = tested on: SW-620
SF-539 = tested on: SF-539
SK-MEL-2 = tested on: SK-MEL-2
OVCAR-4 = tested on: OVCAR-4
UO-31 = tested on: UO-31
NCI-H460 = tested on: NCI-H460
RPMI-8226 = tested on: RPMI-8226
SF-295 = tested on: SF-295
XF498 = tested on: XF498
UACC-257 = tested on: UACC-257
KM-20L2 = tested on: KM-20L2
HCT-15 = tested on: HCT-15
OVCAR-3 = tested on: OVCAR-3
K562 = tested on: K562
A549 = tested on: A549
HCT-116 = tested on: HCT-116
LXFL 529 = tested on: LXFL 529
SF-268 = tested on: SF-268
ACHN = tested on: ACHN
SNB-19 = tested on: SNB-19
UACC-62 = tested on: UACC-62
M14 = tested on: M14
TK-10 = tested on: TK-10
SNB-75 = tested on: SNB-75
CCRF-CEM = tested on: CCRF-CEM
DLD-1 = tested on: DLD-1
COLO 205 = tested on: COLO 205
HCC 2998 = tested on: HCC 2998
HOP-62 = tested on: HOP-62
M19-MEL = tested on: M19-MEL
DMS-114 = tested on: DMS-114
EKVX = tested on: EKVX
SK-MEL-5 = tested on: SK-MEL-5
NCI-H522 = tested on: NCI-H522
IGROV-1 = tested on: IGROV-1
NCI-H23 = tested on: NCI-H23
SN12C = tested on: SN12C
U-251 = tested on: U-251
Malme-3M = tested on: Malme-3M
A498 = tested on: A498
MOLT-4 = tested on: MOLT-4
SK-MEL-28 = tested on: SK-MEL-28
OVCAR-5 = tested on: OVCAR-5
CAKI-1 = tested on: CAKI-1
HOP-18 = tested on: HOP-18
KM12 = tested on: KM12
786-0 = tested on: 786-0
OVCAR-8 = tested on: OVCAR-8
SK-OV-3 = tested on: SK-OV-3
HT-29 = tested on: HT-29
HOP-92 = tested on: HOP-92
SNB-78 = tested on: SNB-78
HL-60 = tested on: HL-60
NCI-H226 = tested on: NCI-H226
LOX IMVI = tested on: LOX IMVI
DMS-273 = tested on: DMS-273
RXF 393 = tested on: RXF 393

Measured: GI50

COc1cc2cnc3c4cc(OC(C)C)c(OC)cc4ccc3c2cc1OC
> 100 µM: HCT-15
inactive: SW-620 > 100 µM | SF-539 > 100 µM | SK-MEL-2 > 100 µM | OVCAR-4 > 100 µM | UO-31 > 100 µM | NCI-H460 > 100 µM | RPMI-8226 > 100 µM | SF-295 > 100 µM | XF498 > 100 µM | UACC-257 > 100 µM | KM-20L2 > 100 µM | OVCAR-3 > 100 µM | K562 > 100 µM | A549 > 100 µM | HCT-116 > 100 µM | LXFL 529 > 100 µM | SF-268 > 100 µM | ACHN > 100 µM | SNB-19 > 100 µM | UACC-62 > 100 µM | M14 > 100 µM | TK-10 > 100 µM | SNB-75 > 100 µM | CCRF-CEM > 100 µM | DLD-1 > 100 µM | COLO 205 > 100 µM | HCC 2998 > 100 µM | HOP-62 > 100 µM | M19-MEL > 100 µM | DMS-114 > 100 µM | EKVX > 100 µM | SK-MEL-5 > 100 µM | NCI-H522 > 100 µM | IGROV-1 > 100 µM | NCI-H23 > 100 µM | SN12C > 100 µM | U-251 > 100 µM | Malme-3M > 100 µM | A498 > 100 µM | MOLT-4 > 100 µM | SK-MEL-28 > 100 µM | OVCAR-5 > 100 µM | CAKI-1 > 100 µM | HOP-18 > 100 µM | KM12 > 100 µM | 786-0 > 100 µM | OVCAR-8 > 100 µM | SK-OV-3 > 100 µM | HT-29 > 100 µM

Cc1c2ccnc(O)c2cc2c(=O)c3cnccc3[nH]c12
inactive: SW-620 > 100 µM | SK-MEL-2 > 100 µM | HOP-92 > 100 µM | OVCAR-4 > 100 µM | UO-31 > 100 µM | NCI-H460 > 100 µM | RPMI-8226 > 100 µM | SF-295 > 100 µM | UACC-257 > 100 µM | KM-20L2 > 100 µM | OVCAR-3 > 100 µM | SNB-78 > 100 µM | K562 > 100 µM | A549 > 100 µM | HL-60 > 100 µM | HCT-116 > 100 µM | LXFL 529 > 100 µM | SF-268 > 100 µM | ACHN > 100 µM | SNB-19 > 100 µM | UACC-62 > 100 µM | M14 > 100 µM | TK-10 > 100 µM | NCI-H226 > 100 µM | SNB-75 > 100 µM | CCRF-CEM > 100 µM | DLD-1 > 100 µM | COLO 205 > 100 µM | HCC 2998 > 100 µM | HOP-62 > 100 µM | M19-MEL > 100 µM | DMS-114 > 100 µM | EKVX > 100 µM | SK-MEL-5 > 100 µM | NCI-H522 > 100 µM | IGROV-1 > 100 µM | NCI-H23 > 100 µM | SN12C > 100 µM | U-251 > 100 µM | Malme-3M > 100 µM | A498 > 100 µM | MOLT-4 > 100 µM | SK-MEL-28 > 100 µM | LOX IMVI > 100 µM | OVCAR-5 > 100 µM | CAKI-1 > 100 µM | HOP-18 > 100 µM | KM12 > 100 µM | 786-0 > 100 µM | DMS-273 > 100 µM | OVCAR-8 > 100 µM | SK-OV-3 > 100 µM | HT-29 > 100 µM | RXF 393 > 100 µM
> 100 µM: HCT-15
